Source: patent US10118954B2, “Apelin analogues” (University of Ulster, priority 2014, dated 2018)

Assays:
[1] = test system: NIH Swiss mice fed a high-fat diet for 150 days; assay: Acute and delayed i.p. glucose tolerance test, blood glucose and plasma insulin; type: in vivo; conditions: fatty acid derived agonists
Summary of the method: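 Diet-induced obese-diabetic mice (high-fat diet 150 days, 18 h fasted) received i.p. glucose (18 mmol/kg) alone or with apelin analogues (25 nmol/kg), or analogues given 2, 8 or 16 h beforehand. Tail blood glucose and plasma insulin sampled at 0, 15, 30, 60, 105 min; n=8, mean±SEM.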

[2] = Degradation of apelin peptides by plasma from fasted normal NIH Swiss mice (rp-HPLC, MALDI-TOF MS); type: in vitro ADME
Summary of the method: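 Apelin peptides were incubated with plasma from fasted normal NIH Swiss mice for 4 h, and the reaction was stopped with TFA. Products were separated by C-8 rp-HPLC with detection at 214 nm. Peak fractions were identified by MALDI-TOF MS, giving fragment molecular weights and retention times.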

[3] = 16 h delayed i.p. glucose tolerance test, 25 nmol/kg
[4] = acute i.p. glucose tolerance test, 25 nmol/kg
[5] = NIH Swiss, mouse, plasma, pH 7.4

CCCCCCCCCCCCCCCC(=O)N[C@@H](CCC(=O)NCCCC[C@H](NC(=O)[C@H](Cc1c[nH]cn1)NC(=O)[C@H](CO)NC(=O)[C@H](CC(C)C)NC(=O)[C@H](CCCNC(=N)N)NC(=O)[C@@H]1CCCN1C(=O)[C@H](CCCNC(=N)N)NC(=O)[C@@H]1CCC(=O)N1)C(=O)NCC(=O)N1CCC[C@H]1C(=O)N[C@@H](CCSC)C(=O)N1CCC[C@H]1C(=O)N[C@@H](Cc1ccccc1)C(N)=O)C(=O)O [pGlu(Lys^8GluPAL)apelin-13-amide]
Rank order on basis of anti-hyperglycaemic efficacy ([1]; 16 h delay): 1 | Blood glucose as percent of glucose-alone control (lower = stronger glucose lowering) [1, 3]: 57% (**) | Insulin secretion, where glucose alone = 100% [1, 3]: 150% (***) | Rank order on basis of anti-hyperglycaemic efficacy ([1]; acute): 1 | Glucose lowering, where glucose alone = 100% [1, 4]: 79% | Insulin secretion, where glucose alone = 100% [1, 4]: 119% (*) | Rank order of stability [2]: =1 | Half-life (t1/2) ([2]; NIH Swiss, mouse, plasma, 263 µg/mL, pH 7.4): >24 h | half-life at 263 µg/mL [2, 5]: > 24 h | remaining at 4 h, 263 µg/mL [2, 5]: 100%
